Positions count from the first letter of the chain named.
Assays:
[1] = molecular target: T1, human ALDH2*2 recombinant mutant enzyme (E487K) (Homo sapiens, UniProt P05091, E504K); assay: ALDH2 enzymatic assay (NADH at 340 nm), recombinant mutant enzyme; type: biochemical; design: key: −: no activation or inhibition; +: activation less than control 1; ++: activation similar to control 1, within 10%; +++: activation more than control 1 and less than control (compound 161); ++++: activation similar to compound 161, within 10%; conditions: activation relative to benchmarks control 1 and compound 161
T1 construct: His-tag (pTrcHis vector) (N); made in house; host or cells: E. coli BL21
T1 sequence (P05091 18-517 E504K): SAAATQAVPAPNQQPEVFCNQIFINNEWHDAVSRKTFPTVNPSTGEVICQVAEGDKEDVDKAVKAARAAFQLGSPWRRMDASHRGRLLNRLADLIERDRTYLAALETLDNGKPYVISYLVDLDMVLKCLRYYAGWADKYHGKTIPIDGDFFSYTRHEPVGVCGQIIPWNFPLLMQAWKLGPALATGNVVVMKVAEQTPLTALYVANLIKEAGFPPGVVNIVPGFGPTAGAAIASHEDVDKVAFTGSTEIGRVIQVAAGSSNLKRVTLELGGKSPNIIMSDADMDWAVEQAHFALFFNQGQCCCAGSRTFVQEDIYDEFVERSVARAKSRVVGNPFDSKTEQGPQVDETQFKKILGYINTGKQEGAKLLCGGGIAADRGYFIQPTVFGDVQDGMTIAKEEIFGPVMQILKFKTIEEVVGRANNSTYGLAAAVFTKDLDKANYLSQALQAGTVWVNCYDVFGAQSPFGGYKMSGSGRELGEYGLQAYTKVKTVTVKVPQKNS
Source text: (§1) ALDH2 catalyzes the oxidative reaction of substrate acetaldehyde to acetic acid using NAD^+ as a cofactor. Enzymatic activity, or catalytic rate, of aldehyde dehydrogenase (ALDH2) can be measured spectrophotometrically at UV wavelength λ340 nm by the accumulation of reduced product NADH derived from NAD^+. […] This method is well-established in the literature [e.g. D. K. Rex, W. F. Bosron, J. E. Smialek, T. K. Li, Alcohol Clin Exp Res 9, 147 (1985)].
(§2) Full-length wild type human ALDH2 cDNA was purchased from ATCC (No. MGC-1806. GenBank ID: BC002967). The 18-amino acid mitochondria transport signal sequence was removed by PCR and cloned into the NheI/HindIII sites of a His-tag vector, pTrcHis, using standard molecular cloning techniques. The human ALDH2* cDNA construct containing the Asian E487K mutation was obtained by site-directed mutagenesis to create the E487K substitution of the wild type ALDH2. Both human clones were designed to express a recombinant protein with the His-tag at the N-terminus of the protein. For the co-expression experiments of human ALDH2 wild type and ALDH2*2 heterotetramers, a wild type ALDH2 gene and a ALDH2 E487K gene were inserted separately into the two multiple cloning sites of pETDuet-1 vector. (Novagen, Calif., USA). All the vectors were transformed into BL21 E. coli host cells and subjected to 0.5 mM IPTG induction for protein expression at 30° C. Purifications of the recombinant proteins by affinity nickel columns (HisTrap, GE Healthy Science, USA) were carried out using standard protocols according to manufacturer's instructions (Novagen, USA).
(§3) Control 1 and compound 161 are used as benchmarks and the symbols have the following representation: […]

human ALDH2 wild type = molecular target: T2, human ALDH2 wild type (Homo sapiens, UniProt P05091); assay: ALDH2 enzymatic assay (NADH at 340 nm), recombinant wild type enzyme; type: biochemical; design: key: −: no activation or inhibition; +: activation less than control 1; ++: activation similar to control 1, within 10%; +++: activation more than control 1 and less than control (compound 161); ++++: activation similar to compound 161, within 10%; conditions: activation relative to benchmarks control 1 and compound 161
T2 construct: His-tag (pTrcHis vector) (N); made in house; host or cells: E. coli BL21
T2 sequence (P05091 18-517): T1 sequence (P05091 18-517 E504K) with K487E
Source text: as §1, §2, §3

Compound	ALDH2 (mutant) [1]	ALDH2 (wild-type) (human ALDH2 wild type)
COc1ccc(CNC(=O)c2c(Cl)cccc2OC)cc1F [Compound 138]	+++	++
COc1ccc(CNC(=O)c2c(Cl)ccnc2OCC2CCCC2)cc1F [Compound 200]	++	++
COc1cc(CNC(=O)c2c(Cl)ccnc2Cl)ccc1F [Compound 171]	−	−
COc1ccc(CNC(=O)c2cc(Br)ccc2C)cc1F [Compound 123]	+	+
COc1cccc(CNC(=O)c2c(Cl)cccc2Cl)c1 [Compound 103]	+	+
COc1ccc(CNC(=O)c2c(Cl)ccnc2Cl)c(F)c1F [Compound 174]	++	+
COc1ccc(CNC(=O)c2c(Cl)cccc2OCC2(C)CC2)cc1F [Compound 151]	++++	++++
COc1ccc(CNC(=O)c2c(Cl)cccc2Br)cc1F [Compound 106]	++	+
COc1ccc(CNC(=O)c2c(OCC3CC3)ccnc2OCC2CC2)cc1F [Compound 162]	++	+
O=C(NCc1ccc(F)c(F)c1)c1c(Cl)ccnc1OCC1CC1 [Compound 180]	+	+
COc1ccc(CNC(=O)c2c(Cl)cccc2Oc2ccccc2)cc1F [Compound 110]	++	+
COC(=O)c1cccc(Oc2cccc(Cl)c2C(=O)NCc2ccc(OC)c(F)c2)c1 [Compound 158]	+	++
COc1ccc(CNC(=O)c2ccccc2Cl)cc1F [Compound 121]	+	+
COc1cc(F)c(CNC(=O)c2c(Cl)ccnc2Cl)cc1F [Compound 176]	++	++
COc1ccc(CNC(=O)c2c(Cl)cccc2Oc2cccc(Cl)c2)cc1F [Compound 136]	++	++
COc1ccc(CNC(=O)c2c(Cl)cccc2Oc2cccc(C)c2)cc1F [Compound 131]	+	+

Compound	ALDH2 (mutant) [1]	ALDH2 (wild-type) (human ALDH2 wild type)
COc1ccc(CNC(=O)c2ccc(Br)cc2C)cc1F [Compound 124]	+	+
COc1ccc(CNC(=O)c2c(Cl)cccc2NCC(C)O)cc1F (centres unmarked) [Compound 159]	++	++
COc1ccc(CNC(=O)c2c(Cl)cccc2NC2CCCC2)cc1F [Compound 148]	+	+
O=S(=O)(NCc1ccc(F)c(F)c1)c1c(Cl)cccc1Cl [Compound 156]	+	−
C=CCOc1cccc(Cl)c1C(=O)NCc1ccc(OC)c(F)c1 [Compound 141]	+++	++
COc1ccc(CNC(=O)c2c(Cl)cccc2Cl)cc1Cl [Compound 100]	+	+
COc1ccc(CNC(=O)c2c(Cl)cccc2OC(C)C)cc1F [Compound 140]	+++	+++
COc1ccc(CNC(=O)c2c(C)cccc2NCC(C)C)cc1F [Compound 117]	++	+
COc1ccc(CNC(=O)c2c(Cl)cccc2OCC(C)C)cc1F [Compound 149]	++++	++++
COc1ccc(CNC(=O)c2c(Cl)ccnc2OCC2(C)CC2)cc1F [Compound 178]	++++	++++
COc1ccc(CNC(=O)c2c(C)cccc2C)cc1 [Compound 114]	+	+
COc1ccc(CNC(=O)c2c(Cl)ccnc2OCC(C)C)cc1F [Compound 183]	++	++
COc1ccc(CNC(=O)c2c(Cl)cccc2NCC2CC2)cc1F [Compound 134]	+++	+++
CCC(C)Oc1nccc(Cl)c1C(=O)NCc1ccc(OC)c(F)c1 (centres unmarked) [Compound 202]	+	++
COc1ccc(CNC(=O)c2c(Cl)cccc2NCc2cccc(C)c2)cc1F [Compound 129]	−	−
CN(C)c1ccc(CNC(=O)c2c(Cl)cccc2Cl)cc1 [Compound 111]	−	−

Next, values leading:

ALDH2 (mutant) [1]	ALDH2 (wild-type) (human ALDH2 wild type)	Compound
+	+	COc1ccc(CNC(=O)c2c(Cl)ccnc2S(C)(=O)=O)cc1F [Compound 219]
+	+	O=C(NCc1ccc2occc2c1)c1c(Cl)ccnc1OCC1CC1 [Compound 257]
+	+	COc1ccc(CNC(=O)c2c(C)ccnc2OCC(C)C)cc1F [Compound 232]
+	+	COc1ccc(CNC(=O)c2c(Cl)ccnc2OCC2CCNC2)cc1F (centres unmarked) [Compound 205]
+++	+	O=C(NCc1ccc2c(c1)CCO2)c1c(Cl)ccnc1OCC1CC1 [Compound 245]
+	+	COc1ccc(CNC(=O)c2c(OC)ccnc2OCC2CC2)cc1F [Compound 251]
++++	++++	COc1cc(F)c(CNC(=O)c2c(Cl)ccnc2OCC(C)C)cc1F [Compound 269]
+	+	COc1ccc(CNC(=O)c2c(C)ccnc2OC2CCC2)cc1F [Compound 238]
+	+	COc1ccc(CNC(=O)c2c(Cl)ccnc2SCC(C)C)cc1F [Compound 218]
+	+	CCC(CC)Oc1nccc(C)c1C(=O)NCc1ccc(OC)c(F)c1 [Compound 234]
+	+	Cc1nc2ccc(CNC(=O)c3c(Cl)ccnc3OCC3CC3)cc2[nH]1 [Compound 261]
+	+	CCC(C)S(=O)(=O)c1nccc(Cl)c1C(=O)NCc1ccc(OC)c(F)c1 (centres unmarked) [Compound 223]
−	−	O=C(NCc1ccc2ncsc2c1)c1c(Cl)ccnc1OCC1CC1 [Compound 264]
+	+	COc1ccc(CNC(=O)c2c(Cl)ccn(C)c2=O)cc1F [Compound 273]
+	+	COc1ccc(CNC(=O)c2c(C(F)(F)F)ccnc2OCC2CCCC2)cc1F [Compound 230]
+	+	COc1ccc(CNC(=O)c2c(Cl)ccnc2SC(C)C)cc1F [Compound 216]
+	+	COc1ccc(CNC(=O)c2c(Cl)ccnc2OCC2CCCN2)cc1F (centres unmarked) [Compound 204]

From patent publication US9670162B2, “Mitochondrial aldehyde dehyrogenase-2 modulators and methods of use thereof” (The Board of Trustees of the Leland Stanford Junior …, priority 2013, dated 2017)
